Reference: patent publication US12479847B2 (DANA-FARBER CANCER INSTITUTE, INC., priority 2019, dated 2025)

Assays:
[1] = target: T1, panel of 468 kinases (Homo sapiens, UniProt P43403); test: KINOMEscan (ScanMAX) kinase profiling; assay type: binding; conditions: ZAP70; 1 μM; read-out: % control
T1 construct: purchased KINOMEscan (ScanMAX) service
T1 sequence (P43403 1-619): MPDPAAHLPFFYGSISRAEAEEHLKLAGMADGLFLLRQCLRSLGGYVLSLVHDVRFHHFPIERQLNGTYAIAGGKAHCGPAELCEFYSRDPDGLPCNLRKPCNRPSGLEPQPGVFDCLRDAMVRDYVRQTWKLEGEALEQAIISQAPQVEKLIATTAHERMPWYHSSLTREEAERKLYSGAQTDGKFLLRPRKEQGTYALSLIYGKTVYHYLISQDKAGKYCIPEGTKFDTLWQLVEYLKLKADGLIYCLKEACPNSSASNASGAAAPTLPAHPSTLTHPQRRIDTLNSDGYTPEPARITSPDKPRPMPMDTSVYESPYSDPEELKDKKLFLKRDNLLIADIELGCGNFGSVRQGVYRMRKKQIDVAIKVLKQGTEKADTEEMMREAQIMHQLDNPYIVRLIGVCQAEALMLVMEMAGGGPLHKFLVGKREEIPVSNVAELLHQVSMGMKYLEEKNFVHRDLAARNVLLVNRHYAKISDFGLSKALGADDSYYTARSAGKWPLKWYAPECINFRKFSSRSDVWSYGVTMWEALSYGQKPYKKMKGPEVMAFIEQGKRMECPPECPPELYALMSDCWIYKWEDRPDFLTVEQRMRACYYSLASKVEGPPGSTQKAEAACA

[2] = target: T2, panel of 468 kinases (Homo sapiens, UniProt Q9HAZ1); test: KINOMEscan (ScanMAX) kinase profiling; assay type: binding; conditions: CLK4; 1 μM; read-out: % control
T2 construct: purchased KINOMEscan (ScanMAX) service
T2 sequence (Q9HAZ1 whole entry): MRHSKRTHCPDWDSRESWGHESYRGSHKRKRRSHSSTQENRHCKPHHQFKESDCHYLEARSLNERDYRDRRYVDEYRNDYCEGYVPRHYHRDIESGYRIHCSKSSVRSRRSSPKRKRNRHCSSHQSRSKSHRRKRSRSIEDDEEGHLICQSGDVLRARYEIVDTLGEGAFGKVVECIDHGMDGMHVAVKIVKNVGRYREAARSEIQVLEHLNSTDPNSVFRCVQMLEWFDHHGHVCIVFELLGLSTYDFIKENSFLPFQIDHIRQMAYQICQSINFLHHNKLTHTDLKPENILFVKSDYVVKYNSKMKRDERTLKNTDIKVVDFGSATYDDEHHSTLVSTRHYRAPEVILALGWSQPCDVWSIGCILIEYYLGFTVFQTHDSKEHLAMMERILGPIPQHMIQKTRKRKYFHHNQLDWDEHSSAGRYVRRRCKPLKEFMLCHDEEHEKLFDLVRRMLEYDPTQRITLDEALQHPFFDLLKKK

[3] = target: human LRRK2 kinase (Homo sapiens, UniProt Q5S007); conditions: LRRK2, ADP-Glo, ATP 10 μM, 60 minutes at 25° C.
human LRRK2 kinase, sequence (Q5S007 whole entry): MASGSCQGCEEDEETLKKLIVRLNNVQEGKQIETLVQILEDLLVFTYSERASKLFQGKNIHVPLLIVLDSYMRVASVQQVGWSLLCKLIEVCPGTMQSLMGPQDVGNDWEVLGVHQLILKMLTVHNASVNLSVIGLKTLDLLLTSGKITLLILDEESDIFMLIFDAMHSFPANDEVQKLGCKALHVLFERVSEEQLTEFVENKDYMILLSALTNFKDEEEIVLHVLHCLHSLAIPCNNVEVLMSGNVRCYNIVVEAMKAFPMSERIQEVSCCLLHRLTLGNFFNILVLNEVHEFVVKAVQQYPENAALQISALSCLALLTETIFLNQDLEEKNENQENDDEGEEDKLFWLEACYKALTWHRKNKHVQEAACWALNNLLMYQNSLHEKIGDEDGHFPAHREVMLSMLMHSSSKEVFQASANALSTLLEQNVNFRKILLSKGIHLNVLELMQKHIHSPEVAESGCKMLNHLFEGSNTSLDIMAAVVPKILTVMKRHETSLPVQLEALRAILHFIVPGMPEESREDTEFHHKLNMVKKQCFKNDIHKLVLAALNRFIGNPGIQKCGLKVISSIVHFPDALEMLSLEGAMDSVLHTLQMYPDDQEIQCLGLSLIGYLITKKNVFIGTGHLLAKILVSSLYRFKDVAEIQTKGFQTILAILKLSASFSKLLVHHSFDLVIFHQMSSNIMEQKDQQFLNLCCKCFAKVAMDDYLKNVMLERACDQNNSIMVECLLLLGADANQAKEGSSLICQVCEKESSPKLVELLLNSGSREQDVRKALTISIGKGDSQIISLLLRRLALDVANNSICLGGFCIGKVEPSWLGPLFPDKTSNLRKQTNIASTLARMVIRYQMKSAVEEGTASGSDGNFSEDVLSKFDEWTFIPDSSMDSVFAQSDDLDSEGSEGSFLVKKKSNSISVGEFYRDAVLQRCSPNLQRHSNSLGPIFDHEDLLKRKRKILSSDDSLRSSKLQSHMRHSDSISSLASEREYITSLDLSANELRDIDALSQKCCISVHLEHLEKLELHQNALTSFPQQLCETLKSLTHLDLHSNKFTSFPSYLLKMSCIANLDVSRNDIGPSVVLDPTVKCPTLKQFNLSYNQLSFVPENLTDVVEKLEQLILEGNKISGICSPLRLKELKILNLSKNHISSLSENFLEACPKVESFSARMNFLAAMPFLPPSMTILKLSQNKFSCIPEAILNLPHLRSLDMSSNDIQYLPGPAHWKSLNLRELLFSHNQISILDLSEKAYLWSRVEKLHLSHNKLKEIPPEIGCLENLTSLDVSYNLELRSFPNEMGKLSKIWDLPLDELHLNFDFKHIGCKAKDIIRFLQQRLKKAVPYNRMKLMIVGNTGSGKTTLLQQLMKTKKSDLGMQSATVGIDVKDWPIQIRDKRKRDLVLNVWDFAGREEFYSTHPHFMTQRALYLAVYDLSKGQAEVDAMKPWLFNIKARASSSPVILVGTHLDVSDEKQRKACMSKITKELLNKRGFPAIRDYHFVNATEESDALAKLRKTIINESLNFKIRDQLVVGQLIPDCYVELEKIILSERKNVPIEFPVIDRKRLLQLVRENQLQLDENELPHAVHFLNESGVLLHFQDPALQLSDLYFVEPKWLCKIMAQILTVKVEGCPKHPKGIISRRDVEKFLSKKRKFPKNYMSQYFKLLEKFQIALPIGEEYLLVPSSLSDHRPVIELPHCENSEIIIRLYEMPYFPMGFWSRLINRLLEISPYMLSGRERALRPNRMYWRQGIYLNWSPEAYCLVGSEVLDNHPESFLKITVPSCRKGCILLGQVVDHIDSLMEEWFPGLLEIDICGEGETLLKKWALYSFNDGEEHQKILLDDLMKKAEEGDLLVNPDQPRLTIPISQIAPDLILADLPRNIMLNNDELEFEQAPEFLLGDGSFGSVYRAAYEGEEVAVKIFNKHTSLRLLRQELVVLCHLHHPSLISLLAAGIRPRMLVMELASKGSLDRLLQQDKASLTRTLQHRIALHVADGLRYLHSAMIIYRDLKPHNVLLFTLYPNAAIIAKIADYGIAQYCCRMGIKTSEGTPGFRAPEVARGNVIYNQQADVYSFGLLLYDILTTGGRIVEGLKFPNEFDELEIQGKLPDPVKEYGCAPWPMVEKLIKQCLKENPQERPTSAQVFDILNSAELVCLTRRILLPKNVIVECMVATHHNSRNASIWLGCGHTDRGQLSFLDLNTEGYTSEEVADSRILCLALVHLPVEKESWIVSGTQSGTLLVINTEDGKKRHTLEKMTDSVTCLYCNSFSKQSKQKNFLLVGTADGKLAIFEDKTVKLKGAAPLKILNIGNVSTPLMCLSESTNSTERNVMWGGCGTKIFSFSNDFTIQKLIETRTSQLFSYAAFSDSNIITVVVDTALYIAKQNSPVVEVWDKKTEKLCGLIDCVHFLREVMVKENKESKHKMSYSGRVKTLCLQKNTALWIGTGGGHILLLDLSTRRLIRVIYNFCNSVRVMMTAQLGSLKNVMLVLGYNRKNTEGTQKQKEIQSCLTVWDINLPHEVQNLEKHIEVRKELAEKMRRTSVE
Experimental: Assay kits from Promega™ Corporation were used according to instructions and adapted as outlined herein. […] The kinase reaction was performed with kinase reaction buffer (40 mM Tris base pH 7.4, 20 mM MgCl2, 0.5 mM dithiothreitol), 0.1 mg/ml bovine serum albumin, distilled H2O). […] In brief, the kinase reactions were started by addition of ATP to the kinase reaction mixture. The resulting mixture was incubated for 60 minutes at 25° C., and then stopped by adding 5 μl of ADP-Glo™ reagent. After incubation at room temperature in the dark for 40 minutes, 10 μl of kinase detection reagent was added per well, and the mixture was incubated for 10 minutes. […] Positive and negative controls were performed in 0.5% DMSO in the presence and absence of LRRK2 kinases. Curve fitting and data presentations were performed using GraphPad Prism version 5.0 (GraphPad Software, Inc.).

[4] = target: T3, wild-type LRKK2 (Mus musculus, UniProt Q5S006); test: LRRK2 immunoblot, phosphorylation of Ser935, NIH-3T3 cell lysates; assay type: cell-based; conditions: FIG. 1
T3 construct: endogenous in cells; host or cells: NIH-3T3
Experimental: Cell lysates were extracted from the NIH-3T3 cell pellet using lysis buffer (40 mM Tris-HCl pH 8.0, 120 mM NaCl, 0.10% Nonidet™-P40) supplemented with protease inhibitors. Proteins in whole-cell lysates were separated by SDS-PAGE and transferred to an Amersham™ nitrocellulose membrane (Amersham, UK). Nitrocellulose membranes were blocked with 5% skim milk in phosphate-buffered saline containing Tween 20 and incubated with primary antibodies overnight at 4° C. The blots were then incubated with the appropriate horseradish peroxidase (HRP)-conjugated secondary antibodies and proteins were visualized by enhanced chemiluminescence, according to the manufacturer's protocol (Amersham™ Western blotting). Secondary antibodies, anti-rabbit IgG-HRP were purchased from Cell Signaling technology. Immunoblot film were scanned on a LAS500 scanner, and images were managed with Adobe Photoshop

| SMILES | remaining binding at 1 µM [1] [%] | remaining binding at 1 µM [2] [%] | IC50 [3] [nM] | inhibition of the phosphorylation of Ser935 in wild-type LRKK2 [4] |
| --- | --- | --- | --- | --- |
| CNc1nc(Nc2ccc(S(=O)(=O)N3CCC(N4CCOCC4)CC3)cc2OC)nc2[nH]cc(Cl)c12 [Compound 12, 5-chloro-N2-(2-methoxy-4-((4-morpholinopiperidin-1-yl)sulfonyl)phenyl)-N4-methyl-7H-pyrrolo[2,3-d]pyrimidine-2,4-diamine] | 65 | 0.75 | < 10 | – |
| CNc1nc(Nc2ccc(C(=O)N3CCC(N4CCOCC4)CC3)c3c2OCO3)nc2[nH]cc(Cl)c12 [Compound 75, (7-((5-chloro-4-(methylamino)-7H-pyrrolo[2,3-d]pyrimidin-2-yl)amino)benzo[d][1,3]dioxol-4-yl)(4-morpholinopiperidin-1-yl)methanone] | 22 | 0.7 | < 10 | – |
| CNc1nc(Nc2ccc(P3(=O)CCN(C4CCOCC4)CC3)cc2OC)nc2[nH]cc(Cl)c12 [Compound 77, 4-(4-((5-chloro-4-(methylamino)-7H-pyrrolo[2,3-d]pyrimidin-2-yl)amino)-3-methoxyphenyl)-1-(tetrahydro-2H-pyran-4-yl)-1,4-azaphosphinane 4-oxide] | 37 | 1.2 | < 10 | inhibited the phosphorylation of Ser935 in wild-type LRKK2 with potency similar to known LRRK2 inhibitor LRRK2-IN-1 |
